Consider 33 molecules from patent publication US10688082B2, “Aminopyrazine compounds with A2A antagonist properties” (Merck Sharp & Dohme Corp., priority 2015, dated 2020).

Structures are written as SMILES.

For this experiment, the target named is T1, human A2a receptor (Homo sapiens, UniProt P29274).
T1 construct: purchased Perkin-Elmer RBHA2AM400UA; host or cells: HEK293 cells (membranes)
T1 sequence (P29274 whole entry): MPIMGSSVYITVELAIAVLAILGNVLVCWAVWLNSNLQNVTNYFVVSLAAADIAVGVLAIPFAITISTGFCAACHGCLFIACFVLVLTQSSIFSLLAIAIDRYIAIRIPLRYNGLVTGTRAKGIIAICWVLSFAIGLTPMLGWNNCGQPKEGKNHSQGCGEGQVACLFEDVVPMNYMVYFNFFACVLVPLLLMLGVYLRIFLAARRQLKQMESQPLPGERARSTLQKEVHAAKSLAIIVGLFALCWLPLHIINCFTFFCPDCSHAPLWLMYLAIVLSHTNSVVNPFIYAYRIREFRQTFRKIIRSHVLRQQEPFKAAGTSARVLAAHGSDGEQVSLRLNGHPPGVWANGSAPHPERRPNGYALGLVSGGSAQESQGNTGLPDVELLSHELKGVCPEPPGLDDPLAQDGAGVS
As to the kind of experiment: Competition binding assay using Scintillation Proximity technology (A2a activity). The settings on record: membranes from HEK293 cells expressing the human A2a receptor; 0.5 nM tritiated ligand; Cheng-Prusoff. Here is the method:
Binding affinities of compounds of the invention for the human A2a receptor were determined in a competition binding assay using Scintillation Proximity technology. Thus, […] from HEK293 cells expressing the human A2a receptor were incubated with a compound of the invention at concentrations ranging from 3000 nM to 0.15 nM in a reaction mixture containing also 0.5 nM of a tritiated form of 5-amino-7-[2-phenethyl]-2-(furan-2-yl)-7H-pyrazolo[4,3-e][1,2,4]triazolo[1,5-c]pyrimidine (the tritiated compound) and 100 μg of wheat germ agglutin-coated yttrium silicate SPA beads for one hour at room temperature with agitation. The beads were then allowed to settle to the bottom of the wells for 1 hr, after which the membrane-associated radioactivity was determined by scintillation counting in a TopCount microplate reader. Ki values were determined using the Cheng-Prusoff equation.
HEK293 cells expressing the human, rat, dog or monkey adenosine 2a receptor (Purchased from Perkin-Elmer # RBHA2AM400UA).
The Tritiated compound was prepared according to published methods.
Wheat germ agglutinin-coated yttrium silicate SPA beads (GE Healthcare # RPNQ0023). Dilute to 25 mg/ml in assay buffer.
Assay Buffer was prepared using Dulbecco's calcium and magnesium free phosphate buffered saline+10 mM MgCl2
Adenosine deaminase from calf intestine, 10 mg/2 ml (Roche #10 102 105 001).
A2a antagonist standard (9-chloro-1-(2-furanyl)-[1,2,4]triazolo1,5-c]quinazolin-5-amine from Tocris Bioscience)
Make eight 1:3 serial dilutions in 100% DMSO from a 3 mM compound stock
Transfer 50 nl of compound into a 384-well OptiPlate (Perkin Elmer).
Typically, final concentrations of compound used in the assay ranged from 3000 nM to 0.152 nM.
Dilute a solution of the Tritiated compound to 1.25 nM in assay buffer. This is a 2.5× solution. The final concentration in the assay is 0.5 nM. Calculate the concentration by counting two 5 μl aliquots.
Use 0.25 ug of membrane/well. Dilute membranes to 9.7 μg/ml in assay buffer. Treat with 20 ug/ml adenosine deaminase (ADA) for 15 minutes at room temperature to degrade endogenous adenosine.
Use 100 μg/well wheat germ agglutinin-coated yttrium silicate SPA beads.
Mix ADA-treated membranes and SPA beads together for 30 min prior to assay.
To the Perkin-Elmer Optiplate-384 containing the compound titration add 20 μl of 2.5× solution of the Tritiated compound and 30 μl of the membrane-bead mixture. Incubate for one hour at room temperature with agitation.
Include total binding (assay buffer+1% DMSO) and non-specific binding (CGS15943, 1 μM) wells.
Allow the beads to settle for one hour.
A curve fitting program (i.e., Prism, Activity Base, Chemcart) is used to determine the EC50. The Ki value is calculated using the Cheng-Prusoff equation. K i=EC50/(1+(radioligand concentration/Kd))
Consider `COc1cccc2c1nc(N)n1nc(C(=O)N3CCCCC3)cc21` [Ex-72, (5-amino-7-methoxypyrazolo[1,5-c]quinazolin-2-yl)(piperidin-1-yl)methanone], for which the affinity corresponds to a Ki of 37 nM. Regarding `COc1cccc2c1nc(N)n1nc(C(=O)N3CCN(Cc4ccc(F)cc4)CC3)cc21` [Ex-73, (5-amino-7-methoxypyrazolo[1,5c]-quinazolin-2-yl)(4-(4-fluorobenzyl)-piperazin-1-yl)methanone], affinity was put at a Ki of 11 nM. `COc1cccc2c1nc(N)n1nc(C(=O)N3CCCC3)cc21` [Ex-74, (5-amino-7-methoxypyrazolo[1,5-c]quinazolin-2-yl)(pyrrolidin-1-yl)methanone] showed a Ki of 5 nM. The molecule `COc1cccc2c1nc(N)n1nc(C(=O)N3CCN(C(=O)OC(C)(C)C)CC3)cc21` [Ex-75, tert-butyl 4-(5-amino-7-methoxypyrazolo[1,5-c]quinazoline-2-carbonyl)piperazine-1-carboxylate] registered an inhibitory constant (Ki) of 20 nM.

`COc1cccc2c1nc(N)n1nc(C(=O)N3CCNCC3)cc21` [Ex-76, (5-amino-7-methoxypyrazolo[1,5-c]quinazolin-2-yl)(piperazin-1-yl)methanone] gave an inhibition constant (Ki) of 300 nM. Molecule `COc1cccc2c1nc(N)n1nc(C(=O)NCc3ccc(F)cc3F)cc21` [Ex-77, 5-amino-N-(2,4-difluorobenzyl)-7-methoxypyrazolo[1,5-c]quinazoline-2-carboxamide] returned a Ki of 2 nM. `COc1cccc2c1nc(N)n1nc(C(=O)N3CCN(c4ccc(F)cc4F)CC3)cc21` [Ex-78, (5-amino-7-methoxypyrazolo[1,5-c]quinazolin-2-yl)(4-(2,4-difluorophenyl)piperazin-1-yl)methanone] returned a Ki of 0.3 nM. In turn, `COc1cccc2c1nc(N)n1nc(C(=O)NCc3ccc(Br)cc3F)cc21` [Ex-79, 5-amino-N-(4-bromo-2-fluorobenzyl)-7-methoxypyrazolo[1,5-c]quinazoline-2-carboxamide] showed an inhibition constant (Ki) of 1 nM. `COc1cccc2c1nc(N)n1nc(C(=O)Nc3ccccc3)cc21` [Ex-80, 5-amino-7-methoxy-N-phenylpyrazolo[1,5-c]quinazoline-2-carboxamide]: the Ki came out at 3 nM. As for `COc1cccc2c1nc(N)n1nc(C(=O)N(C)Cc3ccccc3)cc21` [Ex-81, 5-amino-N-benzyl-7-methoxy-N-methylpyrazolo[1,5-c]quinazoline-2-carboxamide], the inhibition constant Ki amounted to 4 nM. The value for `COc1cccc2c1nc(N)n1nc(C(=O)N(C)Cc3cccc4cccnc34)cc21` [Ex-82, 5-amino-7-methoxy-N-methyl-N-(quinolin-8-ylmethyl)pyrazolo[1,5-c]quinazoline-2-carboxamide] was 7 nM. `COc1cccc2c1nc(N)n1nc(C(=O)N3CCC4(CCN(C(=O)OC(C)(C)C)C4)CC3)cc21` [Ex-83, tert-butyl 8-(5-amino-7-methoxy-pyrazolo[1,5-c]quinazoline-2-carbonyl)-2,8-diazaspiro[4.5]decane-2-carboxylate] had a Ki of 80 nM. `COc1cccc2c1nc(N)n1nc(C(=O)N3CCC4(CCNC4)CC3)cc21` [Ex-84, (5-amino-7-methoxypyrazolo[1,5-c]quinazolin-2-yl)(2,8-diazaspiro[4.5]decan-8-yl)methanone] showed an inhibitory constant (Ki) of 245 nM. With `COc1cccc2c1nc(N)n1nc(C(=O)N3CCC4(CCN(C(=O)OC(C)(C)C)C4)C3)cc21` (stereo not drawn) [Ex-85, tert-butyl 7-(5-amino-7-methoxypyrazolo[1,5-c]quinazoline-2-carbonyl)-2,7-diazaspiro[4.4]nonane-2-carboxylate] the figure was 11 nM. The molecule `COc1cccc2c1nc(N)n1nc(C(=O)N3CCC4(CCNC4)C3)cc21` (stereo not drawn) [Ex-86, (5-amino-7-methoxypyrazolo[1,5-c]quinazolin-2-yl)(2,7-diazaspiro[4.4]nonan-2-yl)methanone] registered an inhibition constant (Ki) of 77 nM. For the molecule `COc1cccc2c1nc(N)n1nc(C(=O)N3CCC4(CCN(C(C)=O)C4)C3)cc21` (stereo not drawn) [Ex-87, 1-(7-(5-amino-7-methoxypyrazolo[1,5-c]quinazoline-2-carbonyl)-2,7-diazaspiro[4.4]nonan-2-yl)ethan-1-one], the affinity corresponds to a Ki of 9 nM. Turning to `COC(=O)N1CCC2(CCN(C(=O)c3cc4c5cccc(OC)c5nc(N)n4n3)C2)C1` (stereo not drawn) [Ex-88, methyl 7-(5-amino-7-methoxypyrazolo[1,5-c]quinazoline-2-carbonyl)-2,7-diazaspiro[4.4]nonane-2-carboxylate], the affinity, expressed as Ki, was 7 nM. Regarding `CCN1CCC2(CCN(C(=O)c3cc4c5cccc(OC)c5nc(N)n4n3)C2)C1` (stereo not drawn) [Ex-89, (5-amino-7-methoxypyrazolo[1,5-c]quinazolin-2-yl)(7-ethyl-2,7-diazaspiro[4.4]nonan-2-yl)methanone], the inhibitory constant (Ki) stood at 43 nM. On to `COc1cccc2c1nc(N)n1nc(C(=O)N3CCC4(CCN(Cc5ccccc5)C4)C3)cc21` (stereo not drawn) [Ex-90, (5-amino-7-methoxypyrazolo[1,5-c]quinazolin-2-yl)(7-benzyl-2,7-diazaspiro[4.4]nonan-2-yl)methanone], for which the Ki turned out to be 50 nM. For the molecule `COc1cccc2c1nc(N)n1nc(C(=O)NCc3cccc4cccnc34)cc21` [Ex-91, 5-amino-7-methoxy-N-(quinolin-8-ylmethyl)pyrazolo[1,5-c]quinazoline-2-carboxamide], the affinity, expressed as Ki, was 0.4 nM. With `COc1cccc2c1nc(N)n1nc(-c3nc(-c4ccccc4)no3)cc21` [Ex-92, 7-methoxy-2-(3-phenyl-1,2,4-oxadiazol-5-yl)pyrazolo[1,5-c]quinazolin-5-amine] the figure was 101 nM; with `COc1cccc2c1nc(N)n1nc(-c3nc(Cc4ccccc4)no3)cc21` [Ex-93, 2-(3-benzyl-1,2,4-oxadiazol-5-yl)-7-methoxypyrazolo[1,5-c]quinazolin-5-amine], 45 nM; with `Nc1nc2ccccc2c2cc(Cc3cccc4cccnc34)nn12` [Ex-94, 2-(quinolin-8-ylmethyl)pyrazolo[1,5-c]quinazolin-5-amine], 10 nM.

For the molecule `Nc1nc2ccccc2c2cc(Cc3ccnc4ccccc34)nn12` [Ex-95, 2-(quinolin-4-ylmethyl)pyrazolo[1,5-c]quinazolin-5-amine], affinity was put at a Ki of 68 nM. In turn, `Nc1nc2ccccc2c2cc(Cc3ccccc3N3CCOCC3)nn12` [Ex-96, 2-(2-morpholinobenzyl)pyrazolo[1,5c]-quinazolin-5-amine] displayed a Ki of 53 nM.

`Nc1nc2ccccc2c2cc(Cc3ccccc3CN3CCOCC3)nn12` [Ex-97, 2-(2-(morpholinomethyl)-bcnzyl)pyrazolo[1,5-c]-quinazolin-5-amine] had an inhibitory constant (Ki) of 51 nM.

The molecule `COc1cccc2c1nc(N)n1nc(-c3nnc(-c4cccc5cccnc45)o3)cc21` [Ex-100, 7-methoxy-2-(5-(quinolin-8-yl)-1,3,4-oxadiazol-2-yl)pyrazolo[1,5-c]quinazolin-5-amine] came in with an inhibition constant Ki of 19 nM.

The molecule `COc1cccc2c1nc(N)n1nc(-c3nnc(N4CCOCC4)o3)cc21` [Ex-101, 7-methoxy-2-(5-morpholino-1,3,4-oxadiazol-2-yl)pyrazolo[1,5-c]quinazolin-5-amine] gave a Ki of 39 nM.

`COc1cccc2c1nc(N)n1nc(-c3nnc(N4CCN(c5ccccc5)CC4)o3)cc21` [Ex-102, 7-methoxy-2-(5-(4-phenylpiperazin-1-yl)-1,3,4-oxadiazol-2-yl)pyrazolo[1,5-c]quinazolin-5-amine] showed an inhibitory constant (Ki) of 33 nM. With `COc1cccc2c1nc(N)n1nc(-c3nnc(NCc4ccc(F)cc4F)o3)cc21` [Ex-103, 5-(5-amino-7-methoxypyrazolo[1,5-c]quinazolin-2-yl)-N-(2,4-difluorobenzyl)-1,3,4-oxadiazol-2-amine], the inhibition constant (Ki) was 23 nM. With `Nc1nc2ccc(F)cc2c2cc(Cc3ccccc3)nn12` [Ex-104, 2-benzyl-9-fluoropyrazolo[1,5-c]quinazolin-5-amine] the figure was 67 nM; with `Nc1nc2ccc(F)cc2c2cc(Cc3cccc4cccnc34)nn12` [Ex-105, 9-fluoro-2-(quinolin-8-ylmethyl)pyrazolo[1,5-c]quinazolin-5-amine], 45 nM. `Nc1nc2ccc(F)cc2c2cc(Cc3ccccc3N3CCOCC3)nn12` [Ex-106, 9-fluoro-2-(2-morpholinobenzyl)pyrazolo[1,5-c]quinazolin-5-amine] had a Ki of 65 nM.

The Ki is a measure of affinity in units of concentration, obtained from inhibition or displacement. The low end stands for higher affinity, the high end for lower affinity.
